Measurements: PubChem BioAssay (NCI)
Several values for one entry are separate records, joined by “and”; a condition that tells them apart may be missing. Equal entries are not always repeated.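 Test compounds were applied to cells in 96-well plates for 48 hours at 5 doses. At the GI50, growth is halved. Definition used: TGI = concentration required for complete inhibition of growth.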

Columns and labels:
Assay in all cases: inhibition of tumour cell growth, NCI panel, 48 h
[1] = test system: MOLT-4 leukemia
[2] = test system: K-562 leukemia
[3] = test system: SW-620 colon
[4] = test system: UO-31 renal
[5] = test system: SF-268 CNS
[6] = test system: NCI-H460 lung
[7] = test system: NCI-H23 lung
[8] = test system: RXF 393 renal
[9] = test system: A498 renal
[10] = test system: LOX IMVI melanoma

SMILES	GI50 [1]	TGI [1]	GI50 [2]	TGI [2]	GI50 [3]	TGI [3]	GI50 [4]	TGI [4]	GI50 [5]	TGI [5]	GI50 [6]	TGI [6]	GI50 [7]	TGI [7]	GI50 [8]	TGI [8]	GI50 [9]	TGI [9]	GI50 [10]	TGI [10]
CCCCN(CCCC)CCCn1c(=O)c2c3ccccc3n(C)c2n2nnc(-c3ccccc3)c12	13.9 µM	> 100 µM	13.9 µM	> 100 µM	26.5 µM	> 100 µM	6.06 µM	46.8 µM	> 100 µM	> 100 µM	41.2 µM	> 100 µM	13 µM	62.6 µM	14.1 µM	43 µM	42.7 µM	> 100 µM	28.4 µM	> 100 µM
O=C(NCC(O)CNC(=O)C(F)(F)F)C(F)(F)F		> 100 µM		> 100 µM		> 100 µM		> 100 µM		> 100 µM		> 100 µM		> 100 µM		> 100 µM		> 100 µM		> 100 µM
COc1cc(O)c2c(c1)C(=O)c1cc3c(c(O)c1C2=O)C(OC1OC(C)C(O)C(O)C1OC)C(OC)C(C)(O)C3=O (stereo not drawn)	3.21 µM and 5.19 µM	11.7 µM and 17.3 µM	2.24 µM and 12.2 µM	> 100 µM and 72.5 µM	2.3 µM	8.38 µM and 5.41 µM	1.87 µM	12.2 µM and 7.13 µM	2.56 µM	15.2 µM and 40.5 µM	1.27 µM	4.54 µM and 4.77 µM	2.36 µM	6.03 µM and 8.08 µM	1.01 µM	6.72 µM and 4.38 µM	1.58 µM	3.13 µM and 5.31 µM	1.67 µM	4.91 µM and 7.1 µM
CNC(=O)Oc1cc(C)c(/C=C/c2cncc(C(=O)NC)c2)c(C)c1	> 25 µM	> 25 µM	15.3 µM	> 25 µM	> 25 µM	> 25 µM	13.3 µM	> 25 µM	> 25 µM	> 25 µM	> 25 µM	> 25 µM	> 25 µM	> 25 µM	14.1 µM	> 25 µM	> 25 µM	> 25 µM	15.9 µM	> 25 µM
c1ccc(CN=C(NCc2ccccc2)NCc2ccccc2)cc1	3.77 µM	19.1 µM	2.6 µM	11.9 µM	4.42 µM	17.9 µM	3.07 µM	15.2 µM	4.32 µM	18.5 µM	5.1 µM	19.5 µM	4.66 µM	17.8 µM	14.3 µM	28.2 µM	2.2 µM	14.7 µM	5.52 µM	19.3 µM
COc1cc2c(cc1OC)C(=O)Cc1ccc(OC)c(OC)c1CN(C)CC2		> 100 µM		> 100 µM		> 100 µM		> 100 µM		> 100 µM		84.4 µM		> 100 µM				48.4 µM		> 100 µM
O=C1c2ccccc2C(=O)N1C/C=C/CO		> 100 µM		> 100 µM		> 100 µM		> 100 µM		> 100 µM		> 100 µM				> 100 µM		> 100 µM		
CCOC(=O)/C(=C(/C)NCC(C)C)c1cc(O)c(O)c2c(C)cc(=O)[nH]c12	3.8 µM	> 100 µM	6.8 µM	> 100 µM	4.95 µM	> 100 µM	46.1 µM	> 100 µM	4.67 µM	> 100 µM	4.32 µM	> 100 µM	5.48 µM	> 100 µM	1.18 µM	20.4 µM	8.31 µM	29.7 µM	5.78 µM	> 100 µM
COc1ccc(OC)c(-c2cc(=O)c3c(OC)c(OC)c(OC)c(OC)c3o2)c1		63.2 µM		> 100 µM		> 100 µM		> 100 µM		> 100 µM		> 100 µM		> 100 µM		77.7 µM		> 100 µM		76.1 µM
COC(=O)[C@H](Cc1ccc(O)cc1)NC(=O)[C@@H](OC)[C@@H]1Cc2cc3cc(OC4CC(OC5CC(O)C(O)C(C)O5)C(O)C(C)O4)c(C)c(O)c3c(O)c2C(=O)[C@H]1OC1CC(OC2CC(OC3CC(C)(O)C(O)C(C)O3)C(O)C(C)O2)C(O)C(C)O1 (stereo partly drawn)	0.126 µM	> 25 µM	0.116 µM	> 25 µM	0.0902 µM	> 25 µM	0.914 µM	> 25 µM	0.199 µM	> 25 µM	0.0604 µM	> 25 µM	0.104 µM	> 25 µM	0.0544 µM	0.292 µM	0.0892 µM	0.451 µM	0.0316 µM	> 25 µM
CSCCOC(=O)C(=[N+]=[N-])c1ccc([N+](=O)[O-])cc1		> 100 µM		> 100 µM		> 100 µM		> 100 µM		> 100 µM		> 100 µM		> 100 µM		> 100 µM				> 100 µM
CN(C)CCOC(c1ccccc1)c1ccccc1		> 100 µM		> 100 µM	35.1 µM	51.8 µM and > 100 µM	32.6 µM	47.4 µM and > 100 µM			26.2 µM	46 µM and > 100 µM	38 µM	53.4 µM and > 100 µM			40.9 µM	58.4 µM		> 100 µM
O=C1CC(O)(c2ccccc2)C(c2ccccc2)=C1c1ccccc1 (stereo not drawn)		81.5 µM		> 100 µM		> 100 µM				> 100 µM		> 100 µM		> 100 µM		> 100 µM				> 100 µM
Cc1ccc(-c2nc(N3CCCNCC3)c3oc(-c4ccccc4)nc3n2)cc1	1.79 µM	3.58 µM			1.68 µM	3.21 µM	1.49 µM	2.85 µM	1.83 µM	3.66 µM	1.85 µM	3.5 µM	1.95 µM	3.71 µM	1.75 µM	3.29 µM	1.66 µM	3.16 µM	1.71 µM	3.2 µM
COc1ccc2oc(C(=O)O)c3c2c1CCC3		> 100 µM		> 100 µM		> 100 µM						> 100 µM		> 100 µM		> 100 µM		> 100 µM		> 100 µM
